Data as given in patent publication US20130211371A1, “FORMULATIONS AND METHODS OF TREATMENT OF SKIN CONDITIONS” (Hy Biopharma, Inc., priority 2010, published 2013).
Marks after values point to notes of the source that are not given here.

Legend:
MF lesions = test: Phase II study, topical hypericin and visible light, MF arm; assay type: in vivo, human; settings: 6 weeks
Protocol: (§1) This study is designed to evaluate the safety and efficacy of topical hypericin in concentrations of 0.1% and 0.25% under occlusion for 24 hours followed by administration of visible light in doses ranging from 8 to 20 J/cm^2 twice weekly for 6 weeks for the treatment of psoriasis or MF. One of the four centers involved in the study administered topical hypericin in concentrations of 0.05 and 0.1%. The concentration of hypericin and the dose of light were based upon the Phase I study described above with normal volunteers.
A standardized topical amount of hypericin in either ointment or liquid formula was applied to defined plaques on the skin of volunteer subjects. […]
(§2) Skin reactions were evaluated each week immediately after irradiation and again at 48 and 72 hours later. The sites of irradiation were examined twice per week thereafter and all changes; e.g., erythema, edema, desquamation, pigmentation, etc, were recorded.
Lesion responses in this study were scored in accordance with the following scales at each patient evaluation:lesional CR=complete regression of the treated lesion; PR=>50% decrease in lesional area during treatment; Stable=<50% decrease in size or <25% increase in size during therapy; Progression=>25% increase in size during therapy. […] If so, the patient was scored as a responder for that lesion. […]

psoriasis lesions = test: Phase II study, topical hypericin and visible light, psoriasis arm; assay type: in vivo, human; settings: All Ointment + Liquid, 6 weeks
Protocol: as §1
A standardized topical amount of hypericin in either ointment or liquid formula was applied to defined plaques on the skin of volunteer subjects. The amount of hypericin in each topical application was as follows: 0.05%=0.005 mg/cm^2; 0.1%=0.01 mg/ cm^2, and 0.25%=0.025 mg/ cm^2.
Each hypericin treatment or placebo was applied twice weekly for a period of 24 hours prior to irradiation. Each application site was covered by non-absorbing Webril cotton of equal area and occluded with occlusive tape (Blenderm, 3M); excess drug was removed prior to irradiation (24 hours post drug application).
Irradiation was undertaken using visible fluorescent bulbs (590-650 nm) (GE cool white fluorescent bulbs, 20-watt fluorescent tubes housed in a reflecting bank) for a period not to exceed 15 minutes (total number of joules approximately 5/cm^2). The light dose was administered twice weekly, separated by at least one day.
The light dose was increased once weekly by 1 joule/cm^2 until symptoms or signs of phototoxicity appeared. At that point, the dose could either be maintained or reduced by 1 joule/cm^2 if phototoxicity was pronounced (skin erythema of greater than 1+[minimal visible erythema).
as §2
Lesion responses in this study were scored in accordance with the following scales at each patient evaluation:lesional CR=complete regression of the treated lesion; PR=>50% decrease in lesional area during treatment; Stable=<50% decrease in size or <25% increase in size during therapy; Progression=>25% increase in size during therapy. The success/failure criterion for each lesion on each patient was whether there was a 50% or better improvement in the lesion area at the end of the 6-week treatment cycle. If so, the patient was scored as a responder for that lesion. Table 1 indicates the rating criteria for patient response.
All patients receiving treatment for MF were treated with the ointment preparation. For patients with psoriasis, 5 patients were treated with 0.1% and 0.25% aqueous solutions of hypericin in dimethyl sulfoxide (DMSO) and 6 patients were treated with the USP
Hydrophilic Ointment preparations. The liquid dosage form consisted of dissolving either 0.2 mL or 0.5 mL hypericin stock solution (polyethylene glycol solution) in 44.8 or 44.5 mL of 50% DMSO/water and mixing with a magnetic stirrer.
The response or lack of response, of each lesion treated with either placebo ointment or with a hypericin-containing ointment was analyzed as a binomial (i.e., yes/no) distribution.
This was an appropriate analysis for response which was quantal in nature. For the null hypothesis (no treatment response) it was assumed that spontaneous resolution of the lesion by the protocol specified 6-week time point would not occur. That is, the true probability of spontaneous lesion regression (defined as <50% of its baseline size for CTCL and to <50% of its combined baseline score for psoriasis lesions) was taken as zero (0%). For the MF analysis, a repeated measures logistic regression was employed to obtain p-values. For analysis of the psoriasis data, a likelihood ratio chi-square test was employed.

[1] = Phase II study, adverse events; assay type: in vivo, human
Protocol: as §2

[2] = Phase I clinical trial, cutaneous phototoxicity of topical hypericin with visible light; assay type: in vivo, human
[3] = cited from earlier work

Cc1cc(O)c2c(=O)c3c(O)cc(O)c4c5c(O)cc(O)c6c(=O)c7c(O)cc(C)c8c1c2c(c34)c(c78)c65 [Hypericin, 4,5,7,4′,5′,7′ -dimethyl-meso naphthodiantbrone]
Percent Responders, Hypericin 0.1% Dose (MF) (MF lesions; ointment 0.1%): 41.7%
Percent Responders, Hypericin 0.25% Dose (MF) (MF lesions; ointment 0.25%): 55.6%
Percent Responders, Response to 0.05% Dose (psoriasis) (psoriasis lesions; 0.05%): 9.1%
Responders/Total, Response to 0.05% Dose (psoriasis) (psoriasis lesions; 0.05%): 1/11
Percent Responders, Hypericin 0.1% Dose (psoriasis) (psoriasis lesions; 0.1%): 36.4^a,b %
Responders/Total, Hypericin 0.1% Dose (psoriasis) (psoriasis lesions; 0.1%): 4/11
Percent Responders, Hypericin 0.1% Dose (psoriasis) (psoriasis lesions; 0.1%, listed as hypericin): 36.4%
Percent Responders, Hypericin 0.25% Dose (psoriasis) (psoriasis lesions; 0.25%): 45.4%^b
Responders/Total, Hypericin 0.25% Dose (psoriasis) (psoriasis lesions; 0.25%): 5/11
Percent Responders, Hypericin 0.25% Dose (psoriasis) (psoriasis lesions; 0.25%, listed as hypericin): 45.4%
Percent Responders, All Hypericin Responders (psoriasis) (psoriasis lesions; any dose): 54.6%^b
Responders/Total, All Hypericin Responders (psoriasis) (psoriasis lesions; any dose): 6/11
Deaths or serious adverse events / overall safety ([1]; MF and psoriasis patients): No deaths or serious adverse events
Reported adverse events ([1]; at the application site after visible light): mild to moderate burning, itching, erythema, and pruritus at the application site
Cutaneous reactions at 0.02% ([2]; 0.02% hypericin, any dose of light): no cutaneous reactions
Cutaneous photosensitivity at 0.1% and 0.5% ([2]; topical under occlusion, visible light 24 hours after application): causes cutaneous photosensitivity
half life ([3]; in vivo): 20 to 24 h
bioavailable following oral administration ([3]; oral): about 20%
